Assay results as given in PMC11594133, “Enzyme (α-Glucosidase, α-Amylase, PTP1B & VEGFR-2) Inhibition and Cytotoxicity of Fluorinated Benzenesulfonic Ester Derivatives of the 5-Substituted 2-Hydroxy-3-nitroacetophenones” (International Journal of Molecular Sciences, 2024).

What was measured:
[1] = biological target: α-glucosidase from Saccharomyces cerevisiae (Saccharomyces cerevisiae, UniProt P53341); experiment: biochemical
Method: A mixture of α-glucosidase (17 µL) from Saccharomyces cerevisiae (0.48 u/mL α-glucosidase), phosphate buffer (100 mM, pH 6.8; 50 µL) and test sample in DMSO was incubated at 37 °C for 10 min. After 10 min., a solution of 2 mM p-nitrophenyl-α-D-glucopyranoside (PNP-G, 17 µL) was added to each well to initiate the reaction. The plate was incubated for 30 min at 37 °C. Five absorbance readings were recorded for each triplicate run at a wavelength of 405 nm using Varioskan flash microplate spectrophotometer (Thermo Scientific, Waltham, MA, USA). The average values obtained from the readings were used to determine the IC50 and standard deviation values. The values were calculated by nonlinear regression analysis and expressed as the mean SD of three distinct experiments using Graph Pad Prism software.

[2] = test system: α-glucosidase; set-up: method as in PMID 32876951; conditions: cited from earlier work
[3] = test system: A549 cell line; experiment: CellTiter-Blue cell viability assay, A549; conditions: Homo sapiens, A549, 24 h, read-out: IC50 (µM ± SD) A549
Method: (§1) The cytotoxic activity of these compounds was evaluated in vitro (triplicate run) on the MCF-7, A549 and Vero cell lines using the CellTiter-Blue Cell viability assay (Promega, Madison, WI, USA) assay referring to the reported instructions as described in our previous study [70]. The cells were maintained in culture flasks in the presence of Dulbecco’s Modified Eagle’s Medium (DMEM; Gibco, Carlsbad, CA, USA) supplemented with 10% fetal bovine serum (FBS) and 1% penicillin/streptomycin and then incubated at 37 °C in 5% CO2. The cells were detached using 2% trypsin upon reaching 85% confluency and counted with a hand-held automated cell counter (Scapter 3.0™, Merck, Burlington, MA, USA). The cells were then seeded at 1 × 10^5 cells/well and the well-plates were incubated overnight to allow cell attachment. […] The mixtures were incubated for another 24 h and then 20 µL of the CellTiter-Blue solution was added to each well. Fluorescence was measured using an Elisa microplate reader (ThermoFisher Scientific, Vario SkanFlash, Vantaa, Finland) at 560 nm excitation/590 nm emission.

[4] = test system: Vero cell line; experiment: CellTiter-Blue cell viability assay, Vero; conditions: Chlorocebus sabaeus, 24 h, read-out: IC50 (µM ± SD) Vero
Method: as §1

[5] = test system: MCF-7 cell line; experiment: CellTiter-Blue cell viability assay, MCF-7; conditions: Homo sapiens, MCF7, 24 h, read-out: IC50 (µM ± SD) MCF-7
Method: as §1

[6] = biological target: Human VEGFR-2 (KDR) (Homo sapiens, UniProt P35968); experiment: Human VEGFR-2 (KDR) kinase assay kit (Kinase-Glo MAX)
Method: The VEGFR-2 enzyme (1 ng/μL) was added to the wells and the mixtures were incubated at 30 °C. After 45 min of incubation, kinase detection reagent (50 μL, Kinase-Glo MAX, Promega) was added to each well. The mixtures were incubated for 15 min at room temperature in the dark. A luminescence reading was detected and quantified by a microplate reader (Varioskan Flash, ThermoFisher Scientific, Vantaa, Finland). The IC50 values were determined by the nonlinear regression analysis using GraphPad Prism software version 8.0 (GraphPad Software, Inc., San Diego, CA, USA).

[7] = biological target: T1, α-amylase (Homo sapiens, UniProt P04746); experiment: In vitro α-amylase inhibitory assay (α-Amylase Inhibitor Screening Kit)
T1 sequence (P04746 16-511): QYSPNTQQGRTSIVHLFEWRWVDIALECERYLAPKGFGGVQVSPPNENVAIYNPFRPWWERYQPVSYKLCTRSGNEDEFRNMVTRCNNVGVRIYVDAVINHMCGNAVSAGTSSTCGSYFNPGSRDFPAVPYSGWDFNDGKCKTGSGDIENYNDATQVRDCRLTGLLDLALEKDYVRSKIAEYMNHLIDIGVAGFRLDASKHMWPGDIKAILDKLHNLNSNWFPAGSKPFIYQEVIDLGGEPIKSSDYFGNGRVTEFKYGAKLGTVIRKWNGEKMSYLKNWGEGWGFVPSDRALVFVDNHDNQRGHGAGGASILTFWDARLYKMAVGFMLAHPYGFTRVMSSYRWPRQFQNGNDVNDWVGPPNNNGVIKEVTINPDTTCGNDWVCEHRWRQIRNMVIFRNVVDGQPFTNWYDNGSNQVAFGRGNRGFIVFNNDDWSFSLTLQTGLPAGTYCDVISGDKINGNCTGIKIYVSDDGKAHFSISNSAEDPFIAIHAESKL
Method: The α-amylase assay was performed in triplicate using a 96-well plate using the α-Amylase Inhibitor Screening Kit (Catalog No. K482; Abcam, Cambridge, UK). […] A solution of α-amylase enzyme (50 μL) prepared by adding 490 μL of assay buffer to 10 μL of α-amylase enzyme was added to each of the wells containing the reaction mixture to initiate the reaction. The plate was incubated for 10 min. at room temperature in the dark. Five different absorbance readings were recorded for each triplicate run at a wavelength of 405 nm using Varioskan flash microplate spectrophotometer (Thermo Scientific, Waltham, MA, USA). The IC50 and SD values were calculated using the Graph Pad Prism software.

[8] = biological target: T2, PTP1B (Homo sapiens, UniProt P18031); experiment: In vitro PTP1B inhibitory assay (Fluorogenic PTP1B (Catalytic Domain) Assay)
T2 sequence (P18031 3-277 limits assumed): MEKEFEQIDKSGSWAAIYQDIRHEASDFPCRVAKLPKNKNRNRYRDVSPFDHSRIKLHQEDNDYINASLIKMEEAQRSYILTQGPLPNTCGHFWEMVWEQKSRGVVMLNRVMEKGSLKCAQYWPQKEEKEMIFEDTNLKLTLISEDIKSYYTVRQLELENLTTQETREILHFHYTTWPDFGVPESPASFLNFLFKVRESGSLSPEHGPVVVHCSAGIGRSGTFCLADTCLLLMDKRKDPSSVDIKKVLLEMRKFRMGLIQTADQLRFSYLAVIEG

Sequence of Human VEGFR-2 (KDR) (P35968 20-1356): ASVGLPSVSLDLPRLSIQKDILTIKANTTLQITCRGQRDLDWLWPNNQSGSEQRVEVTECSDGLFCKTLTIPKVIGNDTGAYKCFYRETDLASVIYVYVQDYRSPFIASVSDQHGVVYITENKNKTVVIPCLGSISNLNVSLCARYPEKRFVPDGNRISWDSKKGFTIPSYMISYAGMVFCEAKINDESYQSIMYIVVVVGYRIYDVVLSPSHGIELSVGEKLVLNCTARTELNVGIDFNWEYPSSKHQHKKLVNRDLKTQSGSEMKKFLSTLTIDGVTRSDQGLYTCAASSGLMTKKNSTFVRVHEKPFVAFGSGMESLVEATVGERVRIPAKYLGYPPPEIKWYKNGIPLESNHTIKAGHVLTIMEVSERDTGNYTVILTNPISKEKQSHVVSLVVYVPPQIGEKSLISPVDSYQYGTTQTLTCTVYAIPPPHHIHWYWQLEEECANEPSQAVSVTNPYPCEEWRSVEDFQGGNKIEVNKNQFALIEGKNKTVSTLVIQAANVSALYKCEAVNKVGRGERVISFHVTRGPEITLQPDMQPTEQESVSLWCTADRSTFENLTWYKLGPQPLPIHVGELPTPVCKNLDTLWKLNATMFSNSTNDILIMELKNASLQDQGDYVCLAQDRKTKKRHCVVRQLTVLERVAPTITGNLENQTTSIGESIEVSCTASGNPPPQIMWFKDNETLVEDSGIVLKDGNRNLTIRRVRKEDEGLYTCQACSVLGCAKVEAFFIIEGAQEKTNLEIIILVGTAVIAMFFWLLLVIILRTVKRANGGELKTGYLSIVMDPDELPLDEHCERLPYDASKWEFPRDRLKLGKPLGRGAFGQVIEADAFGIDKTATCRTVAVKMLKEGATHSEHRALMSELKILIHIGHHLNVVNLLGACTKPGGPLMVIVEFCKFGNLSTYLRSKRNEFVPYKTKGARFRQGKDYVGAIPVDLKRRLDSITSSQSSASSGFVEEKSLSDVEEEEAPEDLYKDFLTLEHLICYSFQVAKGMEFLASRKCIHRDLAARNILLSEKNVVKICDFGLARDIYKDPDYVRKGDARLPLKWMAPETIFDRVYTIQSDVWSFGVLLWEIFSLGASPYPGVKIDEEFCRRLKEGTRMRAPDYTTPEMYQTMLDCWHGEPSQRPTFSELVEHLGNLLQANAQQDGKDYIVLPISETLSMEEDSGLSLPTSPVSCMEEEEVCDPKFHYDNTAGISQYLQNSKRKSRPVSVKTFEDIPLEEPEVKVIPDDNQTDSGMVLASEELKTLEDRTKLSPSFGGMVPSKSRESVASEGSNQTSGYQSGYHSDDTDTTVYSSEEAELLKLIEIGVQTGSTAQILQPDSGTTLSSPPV
Sequence of α-glucosidase from Saccharomyces cerevisiae (P53341 whole entry): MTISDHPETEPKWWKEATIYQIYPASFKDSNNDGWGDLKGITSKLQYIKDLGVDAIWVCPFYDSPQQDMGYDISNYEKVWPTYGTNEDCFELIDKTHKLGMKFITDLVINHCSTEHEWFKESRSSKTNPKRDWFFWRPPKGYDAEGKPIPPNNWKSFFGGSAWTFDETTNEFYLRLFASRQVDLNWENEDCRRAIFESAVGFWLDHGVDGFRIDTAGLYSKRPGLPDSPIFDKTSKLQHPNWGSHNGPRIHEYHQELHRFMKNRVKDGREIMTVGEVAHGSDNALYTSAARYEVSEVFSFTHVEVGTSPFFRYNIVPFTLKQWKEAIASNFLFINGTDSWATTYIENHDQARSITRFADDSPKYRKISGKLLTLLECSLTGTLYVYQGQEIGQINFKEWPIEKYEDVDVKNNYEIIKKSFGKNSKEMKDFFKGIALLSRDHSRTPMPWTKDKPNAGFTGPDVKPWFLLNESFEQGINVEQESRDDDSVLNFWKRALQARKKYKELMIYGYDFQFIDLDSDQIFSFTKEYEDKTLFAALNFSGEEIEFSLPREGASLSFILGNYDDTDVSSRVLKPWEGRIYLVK

| SMILES | IC50 [1] | IC50 [3] | IC50 [5] | IC50 [4] | also measured |
| --- | --- | --- | --- | --- | --- |
| CC(=O)c1cc(F)cc([N+](=O)[O-])c1O [Compound 1a] | 16.9 ± 0.064 µM |  |  |  |  |
| CC(=O)c1cc(Cl)cc([N+](=O)[O-])c1O [Compound 1b] | 27.2 ± 0.195 µM |  |  |  |  |
| CC(=O)c1cc(Br)cc([N+](=O)[O-])c1O [Compound 1c] | 11.9 ± 0.01 µM |  |  |  |  |
| CC(=O)c1cc(F)cc([N+](=O)[O-])c1OS(=O)(=O)c1cccc(F)c1 [Compound 2b, 2-Acetyl-4-fluoro-6-nitrophenyl 3-fluorobenzenesulfonate] | 8.6 ± 0.025 µM |  |  |  |  |
| CC(=O)c1cc(F)cc([N+](=O)[O-])c1OS(=O)(=O)c1ccc(F)cc1 [Compound 2c, 2-Acetyl-4-fluoro-6-nitrophenyl 4-fluorobenzenesulfonate] | 27.4 ± 0.044 µM |  |  |  |  |
| CC(=O)c1cc(Cl)cc([N+](=O)[O-])c1OS(=O)(=O)c1cccc(F)c1 [Compound 2h, 2-Acetyl-4-chloro-6-nitrophenyl 3-fluorobenzenesulfonate] | 12.4 ± 0.041 µM |  |  |  |  |
| CC(=O)c1cc(Cl)cc([N+](=O)[O-])c1OS(=O)(=O)c1ccc(F)cc1 [Compound 2i, 2-Acetyl-4-chloro-6-nitrophenyl 4-fluorobenzenesulfonate] | 10.6 ± 0.039 µM |  |  |  |  |
| COc1ccc(S(=O)(=O)Oc2c(C(C)=O)cc(Cl)cc2[N+](=O)[O-])cc1 [Compound 2l, 2-Acetyl-4-chloro-6-nitrophenyl 4-methoxybenzenesulfonate] | 8.5 ± 0.043 µM |  |  |  |  |
| CC(=O)c1cc(Br)cc([N+](=O)[O-])c1OS(=O)(=O)c1cccc(F)c1 [Compound 2n, 2-Acetyl-4-bromo-6-nitrophenyl 3-fluorobenzenesulfonate] | 18.2 ± 0.041 µM |  |  |  |  |
| CC(=O)c1cc(Br)cc([N+](=O)[O-])c1OS(=O)(=O)c1ccc(F)cc1 [Compound 2o, 2-Acetyl-4-bromo-6-nitrophenyl 4-fluorobenzenesulfonate] | 20.5 ± 0.058 µM |  |  |  |  |
| CC(=O)c1cc(Br)cc([N+](=O)[O-])c1OS(=O)(=O)c1ccc(OC(F)(F)F)cc1 [Compound 2q, 2-Acetyl-4-bromo-6-nitrophenyl 4-(trifluoromethoxy)benzenesulfonate] | 8.7 ± 0.075 µM |  |  |  |  |
| COc1ccc(S(=O)(=O)Oc2c(C(C)=O)cc(Br)cc2[N+](=O)[O-])cc1 [Compound 2r, 2-Acetyl-4-bromo-6-nitrophenyl 4-methoxybenzenesulfonate] | 13.2 ± 0.043 µM |  |  |  |  |
| CC(=O)c1cc(C)cc([N+](=O)[O-])c1OS(=O)(=O)c1ccccc1F [Compound 2s, 2-Acetyl-4-methyl-6-nitrophenyl 2-fluorobenzenesulfonate] | 18.1 ± 0.048 µM |  |  |  |  |
| CC(=O)c1cc(C)cc([N+](=O)[O-])c1OS(=O)(=O)c1cccc(F)c1 [Compound 2t, 2-Acetyl-4-methyl-6-nitrophenyl 3-fluorobenzenesulfonate] | 13.1 ± 0.045 µM |  |  |  |  |
| CC(=O)c1cc(C)cc([N+](=O)[O-])c1OS(=O)(=O)c1ccc(F)cc1 [Compound 2u, 2-Acetyl-4-methyl-6-nitrophenyl 4-fluorobenzenesulfonate] | 11.2 ± 0.045 µM |  |  |  |  |
| COc1cccc2c1C(=O)c1c(O)c3c(c(O)c1C2=O)C[C@@](O)(C(=O)CO)C[C@@H]3O[C@H]1C[C@H](N)[C@H](O)[C@H](C)O1 [Doxorubicin, reference compound] |  | 0.71 ± 0.09 µM | 0.59 ± 0.03 µM | 0.94 ± 0.04 µM |  |
| COC(=O)c1ccc2c(c1)NC(=O)/C2=C(\Nc1ccc(N(C)C(=O)CN2CCN(C)CC2)cc1)c1ccccc1 [Nintedanib, reference compound] |  | 0.78 ± 0.04 µM | 0.4 ± 0.03 µM | 0.24 ± 0.02 µM |  |

Further compounds by falling IC50 [1], results first:

| IC50 [1] | IC50 [3] | IC50 [5] | SMILES | IC50 [4] | also measured |
| --- | --- | --- | --- | --- | --- |
| 8.2 ± 0.015 µM |  |  | CC(=O)c1cc(C)cc([N+](=O)[O-])c1O [Compound 1d] |  | inhibition of α-glucosidase activity (reported) [2]: low nanomolar concentrations |
| 8 ± 0.06 µM |  |  | CC(=O)c1cc(Br)cc([N+](=O)[O-])c1OS(=O)(=O)c1ccc(C(F)(F)F)cc1 [Compound 2p, 2-Acetyl-4-bromo-6-nitrophenyl 4-(trifluoromethyl)benzenesulfonate] |  |  |
| 7.9 ± 0.044 µM |  |  | CC(=O)c1cc(Br)cc([N+](=O)[O-])c1OS(=O)(=O)c1ccccc1F [Compound 2m, 2-Acetyl-4-bromo-6-nitrophenyl 2-fluorobenzenesulfonate] |  |  |
| 6.4 ± 0.012 µM |  |  | CC(=O)c1cc(F)cc([N+](=O)[O-])c1OS(=O)(=O)c1ccc(C(F)(F)F)cc1 [Compound 2d, 2-Acetyl-4-fluoro-6-nitrophenyl 4-(trifluoromethyl)benzenesulfonate] |  |  |
| 6 ± 0.034 µM |  |  | CC(=O)c1cc(C)cc([N+](=O)[O-])c1OS(=O)(=O)c1ccc(OC(F)(F)F)cc1 [Compound 2w, 2-Acetyl-4-methyl-6-nitrophenyl 4-(trifluoromethoxy)benzenesulfonate] |  | IC50 [7]: 16.7 ± 0.035 µM |
| 5.6 ± 0.038 µM | 7.75 ± 0.11 µM | 4.96 ± 0.05 µM | CC(=O)c1cc(F)cc([N+](=O)[O-])c1OS(=O)(=O)c1ccccc1F [Compound 2a, 2-Acetyl-4-fluoro-6-nitrophenyl 2-fluorobenzenesulfonate] | 39.21 ± 0.13 µM | IC50 [6]: 28.7 ± 0.27 µM |
| 5.4 ± 0.03 µM | 2.52 ± 0.02 µM | 2.58 ± 0.02 µM | CC(=O)c1cc(Cl)cc([N+](=O)[O-])c1OS(=O)(=O)c1ccc(C(F)(F)F)cc1 [Compound 2j, 2-Acetyl-4-chloro-6-nitrophenyl 4-(trifluoromethyl)benzenesulfonate] | 38.86 ± 0.16 µM | IC50 [6]: 20.8 ± 0.35 µM; IC50 [7]: 7.3 ± 0.008 µM; IC50 [8]: 19.6 ± 0.042 µM |
| 4.2 ± 0.054 µM | 6.15 ± 0.06 µM | 9.92 ± 0.09 µM | CC(=O)c1cc(Cl)cc([N+](=O)[O-])c1OS(=O)(=O)c1ccccc1F [Compound 2g, 2-Acetyl-4-chloro-6-nitrophenyl 2-fluorobenzenesulfonate] | 33.93 ± 0.15 µM | IC50 [6]: 34.4 ± 0.26 µM; IC50 [7]: 7 ± 0.04 µM; IC50 [8]: 16.9 ± 0.016 µM |
| 3.9 ± 0.031 µM | 1.89 ± 0.05 µM | 34.53 ± 0.12 µM | CC(=O)c1cc(Cl)cc([N+](=O)[O-])c1OS(=O)(=O)c1ccc(OC(F)(F)F)cc1 [Compound 2k, 2-Acetyl-4-chloro-6-nitrophenyl 4-(trifluoromethoxy)benzenesulfonate] | 33.39 ± 0.13 µM | IC50 [6]: 26.4 ± 0.2 µM; IC50 [7]: 9.8 ± 0.021 µM; IC50 [8]: 20.1 ± 0.065 µM |
| 3.6 ± 0.029 µM | 1.01 ± 0.01 µM | 11.01 ± 0.07 µM | COc1ccc(S(=O)(=O)Oc2c(C(C)=O)cc(C)cc2[N+](=O)[O-])cc1 [Compound 2x, 2-Acetyl-4-methyl-6-nitrophenyl 4-methoxybenzenesulfonate] | 56.77 ± 0.18 µM | IC50 [6]: 24.2 ± 0.22 µM; IC50 [7]: 11.9 ± 0.022 µM; IC50 [8]: 21.5 ± 0.066 µM |
| 3.1 ± 0.043 µM | 7.42 ± 0.09 µM | 8.18 ± 0.03 µM | CC(=O)c1cc(F)cc([N+](=O)[O-])c1OS(=O)(=O)c1ccc(OC(F)(F)F)cc1 [Compound 2e, 2-Acetyl-4-fluoro-6-nitrophenyl 4-(trifluoromethoxy)benzenesulfonate] | 20.78 ± 0.14 µM | IC50 [6]: 28.5 ± 0.23 µM; IC50 [7]: 15.2 ± 0.019 µM; IC50 [8]: 23.1 ± 0.006 µM |
| 3 ± 0.014 µM | 5.5 ± 0.01 µM | 8.58 ± 0.07 µM | CC(=O)c1cc(C)cc([N+](=O)[O-])c1OS(=O)(=O)c1ccc(C(F)(F)F)cc1 [Compound 2v, 2-Acetyl-4-methyl-6-nitrophenyl 4-(trifluoromethyl)benzenesulfonate] | 48.02 ± 0.18 µM | IC50 [6]: 16.3 ± 0.29 µM; IC50 [7]: 6 ± 0.02 µM; IC50 [8]: 7.6 ± 0.07 µM |
